# According to patent publication US20240360081A1, “SULFONAMIDE OREXIN RECEPTOR AGONISTS AND USES THEREOF” (Jazz Pharmaceuticals Ireland Limited, priority 2021, published 2024):
# Target: T1, human recombinant OX2 (hOX2) receptor expressed in CHO cells (Homo sapiens, UniProt O43614)
# T1 construct: host or cells: CHO cells (hOX2-CHO)
# T1 sequence (O43614 1-444): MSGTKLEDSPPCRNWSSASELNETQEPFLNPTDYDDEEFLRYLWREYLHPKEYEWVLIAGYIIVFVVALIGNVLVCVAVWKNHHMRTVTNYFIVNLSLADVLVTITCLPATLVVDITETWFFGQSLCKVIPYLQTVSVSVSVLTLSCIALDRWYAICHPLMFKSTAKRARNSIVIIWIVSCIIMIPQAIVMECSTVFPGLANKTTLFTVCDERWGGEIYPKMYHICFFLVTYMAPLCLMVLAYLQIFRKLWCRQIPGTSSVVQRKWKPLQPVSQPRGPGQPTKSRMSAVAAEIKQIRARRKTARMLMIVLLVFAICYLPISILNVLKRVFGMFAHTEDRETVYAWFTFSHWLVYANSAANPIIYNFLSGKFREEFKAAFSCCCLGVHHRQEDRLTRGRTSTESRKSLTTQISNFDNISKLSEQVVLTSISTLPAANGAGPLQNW
# Assay: IP-1 accumulation assay (IP-One HTRF) in hOX2-CHO cells
# Assay type: cell-based
# Settings: 60 min at 37° C., 11 points CRC, response as % of maximal OX-A response
# Outline: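 CHO cells expressing hOX2, 20,000 cells/well in HBSS with 20 mM HEPES pH 7.4, 50 mM LiCl, 0.1% BSA; 11-point compound series, 0.5% DMSO final, 60 min at 37 °C. IP-1 by HTRF (665/615 ratio) after 60 min at room temperature, as % of maximal OX-A response; EC50 by four-parameter logistic fit, mean of ≥2 experiments in duplicate.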
row,SMILES,EC50
1,"Cc1cc(C(CNS(C)(=O)=O)CO[C@H]2CC[C@@H](c3cccc(F)c3)CC2)c(=O)n(C2CC2)c1 (stereo partly drawn) [Example 5v, N-[2-(1-cyclopropyl-5-methyl-2-oxo-1,2-dihydropyridin-3-yl)-3-{[(CIS)-4-(3-fluorophenyl)cyclohexyl]oxy}propyl]methanesulfonamide]",< 0.1 µM
2,"Cc1cc(C(CNS(C)(=O)=O)CO[C@H]2CC[C@@H](c3cccc(F)c3)CC2)c(=O)n(CC(F)F)c1 (stereo partly drawn) [Example 5w, N-{2-[1-(2,2-difluoroethyl)-5-methyl-2-oxo-1,2-dihydropyridin-3-yl]-3-{[(CIS)-4-(3-fluorophenyl)cyclohexyl]oxy}propyl}methanesulfonamide]",< 0.1 µM
3,"Cc1cc(C(CNS(C)(=O)=O)CO[C@H]2CC[C@@H](c3cccc(F)c3)CC2)c(=O)n(C(F)F)c1 (stereo partly drawn) [Example 5x, N-{2-[1-(difluoromethyl)-5-methyl-2-oxo-1,2-dihydropyridin-3-yl]-3-{[(CIS)-4-(3-fluorophenyl)cyclohexyl]oxy}propyl}methanesulfonamide]",< 0.1 µM

# Further lines, results first:
row,EC50,SMILES
1,1 to 10 µM,"Cc1cc(-c2cccnc2)cn(C(CNS(C)(=O)=O)CO[C@H]2CC[C@@H](c3ccccc3)CC2)c1=O (stereo partly drawn) [Example 6a, N-(2-{5-methyl-6-oxo-1,6-dihydro-[3,3′-bipyridin]-1-yl}-3-{[(CIS)-4-phenylcyclohexyl]oxy}propyl) methanesulfonamide]"
2,0.1 to 1 µM,"Cc1cc(-n2cccn2)cn(C(CNS(C)(=O)=O)CO[C@H]2CC[C@@H](c3ccccc3)CC2)c1=O (stereo partly drawn) [Example 7a, N-{2-[3-methyl-2-oxo-5-(1H-pyrazol-1-yl)-1,2-dihydropyridin-1-yl]-3-{[(CIS)-4-phenylcyclohexyl]oxy}propyl}methanesulfonamide]"
3,> 10 µM,"CS(=O)(=O)NCC(Cc1cccc(-c2ccccc2)c1)n1ccccc1=O (stereo not drawn) [Example 8a, N-(3-{[1,1′-biphenyl]-3-yl}-2-(2-oxo-1,2-dihydropyridin-1-yl)propyl)methanesulfonamide]"
